Assay [1] deals with FOXC2-expressing HMLER cells. The experiment in a line: Cell Titer Glo viability of FOXC2-HMLER cells (high throughput screen and 10-point response). The assay is classed as cell-based. The note with it: Homo sapiens. The method, boiled down:
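Viability after 72 h compound exposure was measured as Cell Titer Glo luminescence. FOXC2-HMLER and parental HMLER cells, 1,000 per well in MEGM medium, were dosed 1 h after plating; screening concentration was 2 μM.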
(In general: In ATP-based viability assays light output follows the ATP content of the culture.)

A further assay deals with control HMLER cells. Description: Cell Titer Glo viability of control HMLER cells. Type of assay: cell-based. Particulars: Homo sapiens; 72-hour incubation; read-out: HMLER IC50. An excerpt:
An engineered cancer cell line HMLER as an isogenic screening system was employed to identify compounds that are selectively toxic to the FOXC2 positive genotype. HMLER cells are derived from mammary epithelial cells (HMECs), but are virally transformed with the […] oncogene (G12V), human telomerase reverse transcriptase (hTERT), and SV40 large-T antigen (B. Elenbaas, B. et al. Genes Dev. 15 (2001) 50-65). Expression of these genes endows HMLER cells with functional immortality and tumorigenic potential at high seeding number (>10^6 cells; Hollier (2013)). […]
For high throughput screening, FOXC2-HMLER and HMLER cells were plated at 10^3 cells per well in white 384-well plates in 50 μL of MEGM medium (Lonza). […] After 72-hour incubation, 30 μL of a Cell Titer Glo solution (diluted 1:6 in water, Promega) was dispensed into each well and luminance values were recorded using an Envision plate reader. […]
More specifically, in the high throughput screening assay above, each cell line was plated at 1,000 cells per well in 384-well plates, treated for 72 hours with 2 μM of test compound, and the viability of each line was determined in parallel by Cell Titer Glo (Promega) luminance measurements. […]

Assay [2] deals with STS cell lines (HT 1080, SW684, RD, GCT, SW872, SW982). The experiment in a line: Anti-proliferative activity against soft tissue sarcoma cell line panel. Type of assay: cell-based. An excerpt: The propagation conditions and generation of FOXC2-HMLER, HMLER, SNAIL-HMLER, SNAIL-HMLE, and SUM159 cells have been described previously (Mani (2008)). MCF-7, HepG2, HCT116, and MDA-MB-231 cells were from ATCC and maintained in DMEM medium (Corning) supplemented with 10% FBS (Corning) with Anti-anti (Gibco). The soft tissue sarcoma cell line panel was purchased from ATCC (TCP-1019) and maintained in the recommended medium for each cell type. HUVEC cells (pooled donor) were maintained in EBM-2 medium (both from Lonza Walkersville). Primary human lung fibroblasts were maintained in Fibroblast Medium (both from Sciencell Research Laboratories). For cell growth experiments, HLFs were grown in DMEM supplemented with 2% FBS and Anti-anti. For all experiments, primary human cells were used at a passage no greater than 4.
For high throughput screening, FOXC2-HMLER and HMLER cells were plated at 10^3 cells per well in white 384-well plates in 50 μL of MEGM medium (Lonza). Cells were allowed to attach for one hour before compound was transferred to each well as a DMSO solution using a 100 nL pintool head affixed to a PerkinElmer FX instrument. After 72-hour incubation, 30 μL of a Cell Titer Glo solution (diluted 1:6 in water, Promega) was dispensed into each well and luminance values were recorded using an Envision plate reader. […] Selected hit compounds were reordered from ChemDiv and tested for selective toxicity in 10-point response assays as above. All other miniaturized, selective viability experiments were performed as above using the indicated growth medium.
The anti-proliferative activity of Compound 1 was assessed against a selection of soft tissue sarcomas (STS), which collectively refers to a broad grouping of over 50 subtypes of connective tissue derived cancers for which targeted therapies are lacking (Zambo (2014)). […]
A panel of 6 STS cell lines were evaluated, which cell lines included the histological subtypes of fibrosarcoma (HT 1080, SW684), rhabdomyosarcoma (RD), fibrous histiocytoma (GCT), liposarcoma (SW872), and synovial sarcoma (SW982). […]

Another assay has as its target T1, VIM (Homo sapiens, UniProt P08670).
T1 construct: endogenous in cells; host or cells: FOXC2-HMLER
Description: Immunofluorescent analysis of VIM filamentous architecture in HUVECs. The assay is classed as cell-based. The note with it: one-hour treatment.

For the next assay, the system named is FOXC2-HMLER cells. Description: Confocal imaging of thymidine synced FOXC2-HMLER cells at metaphase. Type of assay: cell-based, human. An excerpt: Because Compound 1 induces a hyper-phosphorylated VIM phenotype, we sought to determine if Compound 1's engagement of VIM might interfere at an alternative stage of mitosis. We therefore performed time course confocal imaging studies of Compound 1 treated FOXC2-HMLER cells after their release from thymidine blocking-based cell cycle synchronization.
Compound 1 treatment also disrupted the ability of β-tubulin to faithfully form the fine spindle microtubules of the mitotic spindle, instead resulting in a compressed phenotype with radiating projections connecting unaligned chromosomes. To assess the uniqueness of this phenotype, we evaluated the metaphase phenotypes of other chemical inhibitors which have shown to alter mitotic progression. These included inhibitors of centromere-associated protein E (CENP-E, also called kinesin-7, GSK92395), kinesin spindle protein (KSP, also called Eg5, Ispinesib), polo like kinases (PLK1/2/3, BI2536), and aurora kinases (AURKA/B/C, VX-680).

Read-outs that look alike come from different tables or passages of the source. Some results are limits rather than exact numbers.

T1 sequence (P08670 whole entry): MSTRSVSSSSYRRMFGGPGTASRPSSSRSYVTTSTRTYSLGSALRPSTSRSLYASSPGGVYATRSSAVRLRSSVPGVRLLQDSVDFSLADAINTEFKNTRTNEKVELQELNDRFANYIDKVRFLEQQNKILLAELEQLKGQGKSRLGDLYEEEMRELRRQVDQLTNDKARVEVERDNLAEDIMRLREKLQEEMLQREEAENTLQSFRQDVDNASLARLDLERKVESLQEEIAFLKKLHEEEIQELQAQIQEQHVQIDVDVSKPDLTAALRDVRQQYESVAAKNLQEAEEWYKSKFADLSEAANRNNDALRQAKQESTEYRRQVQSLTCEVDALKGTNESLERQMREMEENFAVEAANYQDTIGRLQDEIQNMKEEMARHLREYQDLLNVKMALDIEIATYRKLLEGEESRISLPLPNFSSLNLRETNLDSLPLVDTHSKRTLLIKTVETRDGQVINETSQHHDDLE

`Clc1cccc(N2CCN(c3cnnc4c(Cl)cccc34)CC2)c1` [Compound 1, 8-chloro-4-(4-(3-chlorophenyl)piperazin-1-yl)cinnoline]: the IC50 in assay [1] (72-hour incubation, read-out: FOXC2-HMLER IC50) is 234 nM; in assay [1] (scored relative to parent compound 1, 72 hours, read-out: Activity Score, inhibition of FOXC2-expressing HMLER cells by Formula I compounds), below 1000 nM; in the assay with control HMLER cells it was above 20000 nM; in assay [2] (Homo sapiens, SW872 liposarcoma cell line, read-out: IC50, SW872 cells), 440 nM; in assay [2] (panel of 6 STS cell lines, read-out: IC50 values, growth of all STS cell lines), 440 to 1310 nM. In assay [2] (all STS cell lines, 24-hour treatment), the “multinucleation phenotype in STS cell lines” value is given as “robust multinucleation phenotype”. Also, the “VIM filamentous architecture in HUVECs” value at VIM was “promoted the destruction of fine VIM-containing filamentous structures”. Besides, the “VIM filamentous structure at metaphase” value in the assay on FOXC2-HMLER cells was “collapsed VIM filamentous structure”. Besides, in the assay on FOXC2-HMLER cells, the “chromosome alignment to the metaphase plate” value was “inhibited the ability of chromosomes to align to the metaphase plate”.

Values taken from patent US11759461B2, “Small molecule inhibitors of cancer stem cells and mesenchymal cancer types” (The Scripps Research Institute, priority 2017, dated 2023).
